For assay [1], the target named is T1, catalytic domain of MMP-3 enzyme (Homo sapiens, UniProt P08254).
T1 construct: the catalytic domain of MMP-3 enzyme (Biomol, Cat. No. SE-109); purchased Biomol SE-109
Kind of assay: Assay for determining MMP-3 inhibition. It counts as biochemical. The conditions noted are these: fluorescent substrate NFF-3, pH 6.0; read-out: Summary of MMP-3 Activity for Compounds (IC50 MMP-3), Group. On the procedure: Assay for Determining MMP-3 Inhibition
The typical assay for MMP-3 activity is carried out in assay buffer comprised of 50 mM MES, pH 6.0, 10 mM CaCl2 and 0.05% Brij-35. Different concentrations of tested compounds are prepared in assay buffer in 50 μl aliquots. 10 μl of a 100 nM stock solution of the catalytic domain of MMP-3 enzyme (Biomol, Cat. No. SE-109) is added to the compound solution. The mixture of enzyme and compound in assay buffer is thoroughly mixed and incubated for 10 min at room temperature. Upon the completion of incubation, the assay is started by addition of 40 μl of a 12.5 μM stock solution of NFF-3 fluorescent substrate (Calbiochem, Cat. No. 480455). The time-dependent increase in fluorescence is measured at the 330 nm excitation and 390 nm emission by an automatic plate multireader. The IC50 values are calculated from the initial reaction rates.

The target in assay [2] is T2, catalytic domain of MMP-13 enzyme (Homo sapiens, UniProt P45452).
T2 construct: catalytic domain of MMP-13 enzyme (produced by Alantos or commercially available from Invitek (Berlin), Cat. No. 30100812); purchased Invitek (Berlin) 30100812
Put plainly: Assay for determining MMP-13 inhibition. It counts as biochemical. The conditions noted are these: MMP-13 fluorescent substrate, pH 7.5; read-out: Summary of MMP-13 Activity for Compounds (IC50 MMP-13), Group. On the procedure:
Assay for Determining MMP-13 Inhibition
The typical assay for MMP-13 activity is carried out in assay buffer comprised of 50 mM Tris, pH 7.5, 150 mM NaCl, 5 mM CaCl2 and 0.05% Brij-35. Different concentrations of tested compounds are prepared in assay buffer in 50 μl aliquots. 10 μl of a 50 nM stock solution of catalytic domain of MMP-13 enzyme (produced by Alantos or commercially available from Invitek (Berlin), Cat. No. 30100812) is added to the compound solution. The mixture of enzyme and compound in assay buffer is thoroughly mixed and incubated for 10 min at room temperature. Upon the completion of incubation, the assay is started by addition of 40 μl of a 12.5 μM stock solution of MMP-13 fluorescent substrate (Calbiochem, Cat. No. 444235). The time-dependent increase in fluorescence is measured at the 320 nm excitation and 390 nm emission by automatic plate multireader. The IC50 values are calculated from the initial reaction rates.

SMILES strings stand for the structures.

T1 sequence (P08254 100-272 limits assumed): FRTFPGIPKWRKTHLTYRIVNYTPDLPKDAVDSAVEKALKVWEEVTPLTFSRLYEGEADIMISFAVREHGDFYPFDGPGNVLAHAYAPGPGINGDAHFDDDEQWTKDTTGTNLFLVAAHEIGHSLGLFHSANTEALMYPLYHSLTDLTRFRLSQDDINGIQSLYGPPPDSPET

In the case of `COC(=O)[C@@H]1C[C@@H](O)CN1C(=O)c1c[nH]c2c(C(=O)NCc3ccc4c(c3)NC(=O)CO4)ncnc12` [Example 52], the IC50 in assay [1] is 3 to 100 nM; in assay [2], 101 to 20000 nM. The matching figures for `O=C(NCc1ccccc1)c1c[nH]c2c(C(=O)NCc3ccc(F)cc3)ncnc12` [Example 6]: 3 to 100 nM and 101 to 20000 nM. Regarding `CC(C)(CO)NC(=O)c1c[nH]c2c(C(=O)NCc3ccc4c(c3)NC(=O)CO4)ncnc12` [Example 51], the values for the concentration for half-maximal inhibition (IC50) in assay [1] and in assay [2] were 3 to 100 nM and 101 to 20000 nM, respectively.

With `O=C1COc2ccc(CNC(=O)c3ncnc4c(C(=O)N5CCC(O)CC5)c[nH]c34)cc2N1` [Example 42], the 50% inhibitory concentration (IC50) in assay [1] lay in the range of 101 to 20000 nM. For the molecule `C[C@@H](NC(=O)c1c[nH]c2c(C(=O)NCc3ccc4c(c3)NC(=O)CO4)ncnc12)c1ccccc1` [Example 60], the concentration for half-maximal inhibition (IC50) in assay [1] was in the range of 101 to 20000 nM. Consider `CNC(=O)c1c[nH]c2c(C(=O)NCc3ccc4c(c3)NC(=O)CO4)ncnc12` [Example 41], for which the concentration for half-maximal inhibition (IC50) in assay [1] was in the range of 101 to 20000 nM. As to `O=C1COc2ccc(CNC(=O)c3ncnc4c(C(=O)NCC5CCCCC5)c[nH]c34)cc2N1` [Example 35], the IC50 was 3 to 100 nM in assay [1] and 101 to 20000 nM in assay [2]. As for `CCCN(CCC)C(=O)c1c[nH]c2c(C(=O)NCc3ccc4c(c3)NC(=O)CO4)ncnc12` [Example 48], in assay [1], the IC50 was in the range of 3 to 100 nM. Consider `CCC(CC)NC(=O)c1c[nH]c2c(C(=O)NCc3ccc4c(c3)NC(=O)CO4)ncnc12` [Example 31], for which the concentration for half-maximal inhibition (IC50) in assay [1] and in assay [2] was 101 to 20000 nM in each case. `CC(C)NC(=O)c1c[nH]c2c(C(=O)NCc3ccc4c(c3)NC(=O)CO4)ncnc12` [Example 32]: the half-maximal inhibitory concentration (IC50) in assay [1] lay in the range of 101 to 20000 nM. `O=C1CN(C(=O)c2c[nH]c3c(C(=O)NCc4ccc5c(c4)NC(=O)CO5)ncnc23)CCN1` [Example 62]: the half-maximal inhibitory concentration (IC50) was in the range of 3 to 100 nM in assay [1] and 101 to 20000 nM in assay [2].

For the molecule `CN(Cc1ccccc1)C(=O)c1c[nH]c2c(C(=O)NCc3ccc4c(c3)NC(=O)CO4)ncnc12` [Example 46], the concentration for half-maximal inhibition (IC50) in assay [1] lay in the range of 3 to 100 nM; in assay [2], 101 to 20000 nM.

On to `COc1cccc(CNC(=O)c2c[nH]c3c(C(=O)NCc4ccc5c(c4)NC(=O)CO5)ncnc23)c1` [Example 45], for which the 50% inhibitory concentration (IC50) in assay [1] and in assay [2] was 101 to 20000 nM each time. Turning to `O=C1COc2ccc(CNC(=O)c3ncnc4c(C(=O)NCC5(O)CCCCC5)c[nH]c34)cc2N1` [Example 40], the half-inhibitory concentration (IC50) in assay [1] and in assay [2] was 101 to 20000 nM throughout.

For the molecule `CC(C)(C)OC(=O)N1CC2CC1CN2C(=O)c1c[nH]c2c(C(=O)NCc3ccc4c(c3)NC(=O)CO4)ncnc12` (stereo not shown) [Example 50], the IC50 in assay [1] lay in the range of 3 to 100 nM; in assay [2] it was 101 to 20000 nM. On to `CCCCN(CC)C(=O)c1c[nH]c2c(C(=O)NCc3ccc4c(c3)NC(=O)CO4)ncnc12` [Example 47], for which the IC50 in assay [1] fell in the range of 3 to 100 nM. Turning to `O=C1COc2ccc(CNC(=O)c3ncnc4c(C(=O)NC5CCCC5)c[nH]c34)cc2N1` [Example 33], the IC50 in assay [1] lay within 3 to 100 nM. Same read-out and setting: in the case of `CCOC(=O)CC1C(=O)NCCN1C(=O)c1c[nH]c2c(C(=O)NCc3ccc4c(c3)NC(=O)CO4)ncnc12` (stereo not shown) [Example 63] it was 101 to 20000 nM.

For `O=C1COc2ccc(CNC(=O)c3ncnc4c(C(=O)NCc5ccccc5)c[nH]c34)cc2N1` [Example 34], the values for the half-inhibitory concentration (IC50) in assay [1] and in assay [2] were 3 to 100 nM and 101 to 20000 nM, respectively. As to `C[C@H](NC(=O)c1c[nH]c2c(C(=O)NCc3ccc4c(c3)NC(=O)CO4)ncnc12)c1ccccc1` [Example 61], the IC50 in assay [1] was 101 to 20000 nM.

The record behind these values is patent publication US20080221083A1, “Heterobicyclic metalloprotease inhibitors” (priority 2006, published 2008).
